#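 Tested at 5 concentrations; 48 h exposure; 96-well plates; endpoints linearly interpolated, else capped at highest concentration. GI50 marks 50% less growth. TGI: concentration producing complete growth inhibition.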
# Columns and labels:
# Assay in all cases: growth of human tumour cells (NCI), 48 h
# 786-0 renal = system: 786-0 renal
# OVCAR-8 ovarian = system: OVCAR-8 ovarian
# PC-3 prostate = system: PC-3 prostate
# UACC-257 melanoma = system: UACC-257 melanoma
# SN12C renal = system: SN12C renal
# A549 NSCLC = system: A549 NSCLC
# ACHN renal = system: ACHN renal
# SNB-19 CNS = system: SNB-19 CNS
# SW-620 colon = system: SW-620 colon
# MDA-MB-435 = system: MDA-MB-435
# NCI-H226 lung = system: NCI-H226 lung
# SK-MEL-28 melanoma = system: SK-MEL-28 melanoma
# SR leukemia = system: SR leukemia
# NCI-H460 lung = system: NCI-H460 lung
# M14 melanoma = system: M14 melanoma
# LOX IMVI melanoma = system: LOX IMVI melanoma
# SF-295 CNS = system: SF-295 CNS
# BT-549 breast = system: BT-549 breast
# RPMI-8226 leukemia = system: RPMI-8226 leukemia
# HT29 colon = system: HT29 colon
# U251 CNS = system: U251 CNS
# HCT-15 colon = system: HCT-15 colon
# EKVX NSCLC = system: EKVX NSCLC
# SF-268 CNS = system: SF-268 CNS
# T-47D breast = system: T-47D breast
# NCI-H522 lung = system: NCI-H522 lung
# UACC-62 melanoma = system: UACC-62 melanoma
# MCF7 breast = system: MCF7 breast
# HS 578T breast = system: HS 578T breast
# OVCAR-4 ovarian = system: OVCAR-4 ovarian
# MOLT-4 leukemia = system: MOLT-4 leukemia
# SK-OV-3 ovarian = system: SK-OV-3 ovarian
# NCI-H23 lung = system: NCI-H23 lung
# COLO 205 colon = system: COLO 205 colon
# RXF 393 renal = system: RXF 393 renal
# HCC-2998 colon = system: HCC-2998 colon
# UO-31 renal = system: UO-31 renal
# DU-145 prostate = system: DU-145 prostate
# OVCAR-5 ovarian = system: OVCAR-5 ovarian
# SF-539 CNS = system: SF-539 CNS
# CAKI-1 renal = system: CAKI-1 renal
# NCI/ADR-RES ovarian = system: NCI/ADR-RES ovarian
# TK-10 renal = system: TK-10 renal
# MALME-3M melanoma = system: MALME-3M melanoma
# KM12 colon = system: KM12 colon
# HOP-62 NSCLC = system: HOP-62 NSCLC
# IGROV1 ovarian = system: IGROV1 ovarian
# SNB-75 CNS = system: SNB-75 CNS
# OVCAR-3 ovarian = system: OVCAR-3 ovarian
# HCT-116 colon = system: HCT-116 colon
# MDA-MB-231 breast = system: MDA-MB-231 breast
# A498 renal = system: A498 renal
# SK-MEL-5 melanoma = system: SK-MEL-5 melanoma
# CCRF-CEM leukemia = system: CCRF-CEM leukemia
# HL-60(TB) leukemia = system: HL-60(TB) leukemia
# SK-MEL-2 melanoma = system: SK-MEL-2 melanoma
# K-562 leukemia = system: K-562 leukemia
# HOP-92 NSCLC = system: HOP-92 NSCLC
smiles,measurement,setting,value
N#Cc1c(N)nc(NCc2ccccc2)c(C#N)c1-c1ccc(Cl)cc1,GI50,786-0 renal,20 µM
same,TGI,786-0 renal,38.6 µM
same,GI50,OVCAR-8 ovarian,19 µM
same,TGI,OVCAR-8 ovarian,57.2 µM
same,GI50,PC-3 prostate,17.9 µM
same,TGI,PC-3 prostate,48.7 µM
same,GI50,UACC-257 melanoma,67.9 µM
same,TGI,UACC-257 melanoma,> 100 µM
same,GI50,SN12C renal,16.1 µM
same,TGI,SN12C renal,38.3 µM
same,GI50,A549 NSCLC,28.3 µM
same,TGI,A549 NSCLC,> 100 µM
same,GI50,ACHN renal,13.4 µM
same,TGI,ACHN renal,32.8 µM
same,GI50,SNB-19 CNS,31.6 µM
same,TGI,SNB-19 CNS,> 100 µM
same,GI50,SW-620 colon,16.2 µM
same,TGI,SW-620 colon,96.9 µM
same,GI50,MDA-MB-435,15.7 µM
same,TGI,MDA-MB-435,43.6 µM
same,GI50,NCI-H226 lung,10.6 µM
same,TGI,NCI-H226 lung,31.2 µM
same,GI50,SK-MEL-28 melanoma,25.9 µM
same,TGI,SK-MEL-28 melanoma,> 100 µM
same,GI50,SR leukemia,13.3 µM
same,TGI,SR leukemia,52.8 µM
same,GI50,NCI-H460 lung,10.2 µM
same,TGI,NCI-H460 lung,28.7 µM
same,GI50,M14 melanoma,20 µM
same,TGI,M14 melanoma,99.7 µM
same,GI50,LOX IMVI melanoma,12.4 µM
same,TGI,LOX IMVI melanoma,29.3 µM
same,GI50,SF-295 CNS,14.2 µM
same,TGI,SF-295 CNS,34.4 µM
same,GI50,BT-549 breast,19.6 µM
same,TGI,BT-549 breast,60.4 µM
same,GI50,RPMI-8226 leukemia,18.9 µM
same,TGI,RPMI-8226 leukemia,97.1 µM
same,GI50,HT29 colon,22.3 µM
same,TGI,HT29 colon,> 100 µM
same,GI50,U251 CNS,12.4 µM
same,TGI,U251 CNS,26.9 µM
same,GI50,HCT-15 colon,18.8 µM
same,TGI,HCT-15 colon,> 100 µM
same,GI50,EKVX NSCLC,27.3 µM
same,TGI,EKVX NSCLC,79 µM
same,GI50,SF-268 CNS,14.3 µM
same,TGI,SF-268 CNS,35.6 µM
same,GI50,T-47D breast,27.3 µM
same,TGI,T-47D breast,> 100 µM
same,GI50,NCI-H522 lung,20.9 µM
same,TGI,NCI-H522 lung,57.5 µM
same,GI50,UACC-62 melanoma,14.7 µM
same,TGI,UACC-62 melanoma,33.5 µM
same,GI50,MCF7 breast,13.8 µM
same,TGI,MCF7 breast,83.1 µM
same,GI50,HS 578T breast,15.6 µM
same,TGI,HS 578T breast,40.4 µM
same,GI50,OVCAR-4 ovarian,9.57 µM
same,TGI,OVCAR-4 ovarian,> 100 µM
same,GI50,MOLT-4 leukemia,34.3 µM
same,TGI,MOLT-4 leukemia,> 100 µM
same,GI50,SK-OV-3 ovarian,33.2 µM
same,TGI,SK-OV-3 ovarian,> 100 µM
same,GI50,NCI-H23 lung,22.8 µM
same,TGI,NCI-H23 lung,80 µM
same,GI50,COLO 205 colon,46.9 µM
same,TGI,COLO 205 colon,> 100 µM
same,GI50,RXF 393 renal,26.5 µM
same,TGI,RXF 393 renal,74.1 µM
same,GI50,HCC-2998 colon,71.1 µM
same,TGI,HCC-2998 colon,> 100 µM
same,GI50,UO-31 renal,31.9 µM
same,TGI,UO-31 renal,> 100 µM
same,GI50,DU-145 prostate,17.7 µM
same,TGI,DU-145 prostate,55.7 µM
same,GI50,OVCAR-5 ovarian,24.2 µM
same,TGI,OVCAR-5 ovarian,76.1 µM
same,GI50,SF-539 CNS,25.9 µM
same,TGI,SF-539 CNS,68.1 µM
same,GI50,CAKI-1 renal,20.1 µM
same,TGI,CAKI-1 renal,46.7 µM
same,GI50,NCI/ADR-RES ovarian,19.8 µM
same,TGI,NCI/ADR-RES ovarian,60 µM
same,GI50,TK-10 renal,14.4 µM
same,TGI,TK-10 renal,32.8 µM
same,GI50,MALME-3M melanoma,14.4 µM
same,TGI,MALME-3M melanoma,54.5 µM
same,GI50,KM12 colon,25.2 µM
same,TGI,KM12 colon,> 100 µM
same,GI50,HOP-62 NSCLC,16.1 µM
same,TGI,HOP-62 NSCLC,31.2 µM
same,GI50,IGROV1 ovarian,13.5 µM
same,TGI,IGROV1 ovarian,32.4 µM
same,GI50,SNB-75 CNS,22.1 µM
same,TGI,SNB-75 CNS,72.3 µM
same,GI50,OVCAR-3 ovarian,14.7 µM
same,TGI,OVCAR-3 ovarian,37.1 µM
same,GI50,HCT-116 colon,15.8 µM
same,TGI,HCT-116 colon,41.3 µM
same,GI50,MDA-MB-231 breast,14.2 µM
same,TGI,MDA-MB-231 breast,33.2 µM
same,GI50,A498 renal,10.4 µM
same,TGI,A498 renal,26.4 µM
same,GI50,SK-MEL-5 melanoma,25.9 µM
same,TGI,SK-MEL-5 melanoma,> 100 µM
same,GI50,CCRF-CEM leukemia,28.2 µM
same,TGI,CCRF-CEM leukemia,> 100 µM
COc1ccc2c(c1)CCC1C2CCC2(C)C3=CC(O)CCC3CC12 (stereo not drawn),GI50,786-0 renal,17.4 µM
same,TGI,786-0 renal,33.3 µM
same,GI50,HL-60(TB) leukemia,15.6 µM
same,TGI,HL-60(TB) leukemia,35.5 µM
same,GI50,OVCAR-8 ovarian,18 µM
same,TGI,OVCAR-8 ovarian,36.7 µM
same,GI50,PC-3 prostate,15.2 µM
same,TGI,PC-3 prostate,31.1 µM
same,GI50,UACC-257 melanoma,12.7 µM
same,TGI,UACC-257 melanoma,26.2 µM
same,GI50,SN12C renal,16.4 µM
same,TGI,SN12C renal,30.9 µM
same,GI50,A549 NSCLC,14.7 µM
same,TGI,A549 NSCLC,31.6 µM
same,GI50,ACHN renal,20.1 µM
same,TGI,ACHN renal,34.7 µM
same,GI50,SNB-19 CNS,21.5 µM
same,TGI,SNB-19 CNS,42.5 µM
same,GI50,SW-620 colon,14.4 µM
same,TGI,SW-620 colon,30.1 µM
same,GI50,MDA-MB-435,15.3 µM
same,TGI,MDA-MB-435,35.4 µM
same,GI50,NCI-H226 lung,18 µM
same,TGI,NCI-H226 lung,40.7 µM
same,GI50,SK-MEL-28 melanoma,21.8 µM
same,TGI,SK-MEL-28 melanoma,51.5 µM
same,GI50,SR leukemia,14.3 µM
same,TGI,SR leukemia,37.5 µM
same,GI50,NCI-H460 lung,19.4 µM
same,TGI,NCI-H460 lung,40.7 µM
same,GI50,M14 melanoma,15.7 µM
same,TGI,M14 melanoma,30.2 µM
same,GI50,LOX IMVI melanoma,15.4 µM
same,TGI,LOX IMVI melanoma,31.8 µM
same,GI50,SF-295 CNS,20.4 µM
same,TGI,SF-295 CNS,46.1 µM
same,GI50,BT-549 breast,18.8 µM
same,TGI,BT-549 breast,41.5 µM
same,GI50,SK-MEL-2 melanoma,18.9 µM
same,TGI,SK-MEL-2 melanoma,56.6 µM
same,GI50,RPMI-8226 leukemia,16.7 µM
same,TGI,RPMI-8226 leukemia,43.9 µM
same,GI50,HT29 colon,11 µM
same,TGI,HT29 colon,37.4 µM
same,GI50,U251 CNS,14 µM
same,TGI,U251 CNS,27.4 µM
same,GI50,HCT-15 colon,7.06 µM
same,TGI,HCT-15 colon,21.2 µM
same,GI50,K-562 leukemia,13.1 µM
same,TGI,K-562 leukemia,35.5 µM
same,GI50,EKVX NSCLC,16.9 µM
same,TGI,EKVX NSCLC,36.2 µM
same,GI50,SF-268 CNS,20.3 µM
same,TGI,SF-268 CNS,40.6 µM
same,GI50,T-47D breast,23 µM
same,TGI,T-47D breast,64.5 µM
same,GI50,NCI-H522 lung,14.3 µM
same,TGI,NCI-H522 lung,31.5 µM
same,GI50,UACC-62 melanoma,12.5 µM
same,TGI,UACC-62 melanoma,25 µM
same,GI50,MCF7 breast,24.8 µM
same,TGI,MCF7 breast,50.5 µM
same,GI50,HS 578T breast,23.4 µM
same,TGI,HS 578T breast,49.1 µM
same,GI50,OVCAR-4 ovarian,28 µM
same,TGI,OVCAR-4 ovarian,75.1 µM
same,GI50,MOLT-4 leukemia,18.3 µM
same,TGI,MOLT-4 leukemia,43.7 µM
same,GI50,NCI-H23 lung,15.8 µM
same,TGI,NCI-H23 lung,30.1 µM
same,GI50,COLO 205 colon,32.7 µM
same,TGI,COLO 205 colon,88.7 µM
same,GI50,HCC-2998 colon,14.3 µM
same,TGI,HCC-2998 colon,27.4 µM
same,GI50,UO-31 renal,19.8 µM
same,TGI,UO-31 renal,40.9 µM
same,GI50,DU-145 prostate,15.7 µM
same,TGI,DU-145 prostate,30.2 µM
same,GI50,OVCAR-5 ovarian,15.2 µM
same,TGI,OVCAR-5 ovarian,29.1 µM
same,GI50,SF-539 CNS,18.3 µM
same,TGI,SF-539 CNS,34.7 µM
same,GI50,CAKI-1 renal,21.9 µM
same,TGI,CAKI-1 renal,45.5 µM
same,GI50,HOP-92 NSCLC,22.6 µM
same,TGI,HOP-92 NSCLC,45.2 µM
same,GI50,NCI/ADR-RES ovarian,16 µM
same,TGI,NCI/ADR-RES ovarian,34.5 µM
same,GI50,TK-10 renal,21.2 µM
same,TGI,TK-10 renal,43.2 µM
same,GI50,KM12 colon,19.8 µM
same,TGI,KM12 colon,40.1 µM
same,GI50,HOP-62 NSCLC,19.6 µM
same,TGI,HOP-62 NSCLC,34.4 µM
same,GI50,IGROV1 ovarian,16.7 µM
same,TGI,IGROV1 ovarian,37.2 µM
same,GI50,SNB-75 CNS,43.5 µM
same,TGI,SNB-75 CNS,> 100 µM
same,GI50,OVCAR-3 ovarian,25.1 µM
same,TGI,OVCAR-3 ovarian,53.6 µM
same,GI50,HCT-116 colon,15.7 µM
same,TGI,HCT-116 colon,29.6 µM
same,GI50,MDA-MB-231 breast,17.6 µM
same,TGI,MDA-MB-231 breast,34.8 µM
same,GI50,A498 renal,16.7 µM
same,TGI,A498 renal,35.4 µM
same,GI50,SK-MEL-5 melanoma,11.7 µM
same,TGI,SK-MEL-5 melanoma,23.9 µM
same,GI50,CCRF-CEM leukemia,15.6 µM
same,TGI,CCRF-CEM leukemia,36.3 µM

# From PubChem BioAssay (NCI)
